One assay addresses BRAF V600E (Homo sapiens (Human), UniProt P15056, V600E). Nature of the assay: Z′-LYTE kinase inhibition assay (Invitrogen), BRAF V600E. In kind it is biochemical. As to conditions: 1 μM compound, Z′-LYTE method; read-out: % inhibition at 1 μM against BRAF V600E. Here is the method:
(§1) Inhibitory activities Inhibitory activities of compounds against BRAF, and BRAF V600E were measured by Invitrogen using Z′-LYTE® Method as briefly described in the following. 4× Test compounds are dissolved in 1% DMSO. […] ATP solutions are diluted to a 4×ATP working concentration in Kinase Buffer (50 mM HEPES pH 7.5, 0.01% BRIJ-35, 10 mM MgCl2, 1 mM EGTA). Reaction started by 30-second shaking of mixture consisting of 2.5 μL 4× test compound, […] and 2.5 μL 4×ATP Solution on Bar-coded Corning, low volume NBS, black 384-well plate (Corning Cat. #3676). Then the mixture was incubated for 60-minute at room temperature for the kinase reaction, followed by addition of 5 μL of a 1:1024 dilution of development reagent A and 30-second plate shake. The mixture was then incubated for another 60-minute at room temperature for development reaction. Fluorescence was read by plate reader. IC50 was calculated by plotting the concentration of compound vs the percentage of inhibition in treated wells using GraphPad Prism 5.
The scale utilized in Table 3 is as follows: +++ less than 100 nM; and ++ greater than 100 nM.

Another assay relates to A549 cells. The assay can be described thus: Inhibition of cancer cell growth, MTT assay, A549. In kind it is cell-based. As to conditions: Homo sapiens, A549, 72 h exposure. Here is the method: (§2) Inhibition of cell growth by compounds was measured using MTT assay (Mosmann, T., Journal of Immunological Methods, 1983, 65, 55-63). Tumor cell lines were purchased from ATCC (American Type Culture Collection, Manassas, Va.). All cell lines were maintained in RPMI 1640 (Hyclone) supplemented with 10% fetal bovine serum (FBS, Hyclone), glutamine (2 mM, Hyclone), and antibiotics (penicillin 100 U/mL and streptomycin 50 μg/mL) at 37° C. in a humidified atmosphere of 5% CO2 in air. Taxol (as a positive control, Sigma) and compounds were dissolved in DMSO (Sigma), and the final concentration of DMSO in the medium was 1%. Tumor cells were plated in 96-well plates at densities of about 4000 cells/well of a 96-well plate and allowed to adhere/grow for 24 h. They were then treated with various concentrations of drug for 72 h. 3-(4,5-Dimethylthiazol-2-yl)-2,5-diphenyltetrazolium bromide (MTT, Sigma) was used to determine the number of viable cells at the time of compound addition and the number of cells remaining after 72 h compound exposure. The number of cells remaining after 72 h was compared to the number of viable cells at the time of compound addition by measuring the absorbance at 570 nm, allowing for the calculation of growth inhibition.
(§3) All concentrations of compounds were tested in triplicate and controls were averaged over 4 wells. IC50 was calculated by plotting the concentration of compound vs the percentage of inhibition in treated wells using GraphPad Prism 5. […] The scale utilized in Table 6 is as follows: +++ less than 1000 nM; ++ between 1000 nM and 5000 nM; and + greater than 5000 nM. The scale utilized in Table 7 is as follows: +++ less than 2000 nM; ++ between 2000 nM and 5000 nM; and + greater than 5000 nM.

Another assay addresses KDR (VEGFR2) (Homo sapiens (Human), UniProt P35968). Nature of the assay: Z′-LYTE kinase inhibition assay (Invitrogen), KDR. The class given is biochemical. As to conditions: 1 μM compound, Z′-LYTE method; read-out: % inhibition at 1 μM against KDR. How it is done:
as §1
Inhibitory activities of compounds against KDR (VEGFR2) were also measured by Invitrogen using Z′-LYTE® Method as described above with the following modification. The 2× KDR (VEGFR2)/Tyr 01 mixture is prepared in 50 mM HEPES pH 7.5, 0.01% BRIJ-35, 10 mM MgCl2, 1 mM EGTA. The final 10 μL Kinase Reaction consists of 0.5-11.7 ng KDR (VEGFR2) and 2 μM Tyr 01 in 50 mM HEPES pH 7.5, 0.01% BRIJ-35, 10 mM MgCl2, 1 mM EGTA. After the 1 hour Kinase Reaction incubation, 5 μL of a 1:256 dilution of Development Reagent B is added.
The scale utilized in Table 5 is as follows: +++ less than 100 nM; and ++ greater than 100 nM

Another assay concerns A375 cells. Nature of the assay: Inhibition of cancer cell growth, MTT assay, A375. As to conditions: Homo sapiens, A-375, 72 h exposure. In kind it is cell-based. Here is the method:
as §2, §3

Some results are limits rather than exact numbers.

KDR (VEGFR2), sequence (P35968 20-1356): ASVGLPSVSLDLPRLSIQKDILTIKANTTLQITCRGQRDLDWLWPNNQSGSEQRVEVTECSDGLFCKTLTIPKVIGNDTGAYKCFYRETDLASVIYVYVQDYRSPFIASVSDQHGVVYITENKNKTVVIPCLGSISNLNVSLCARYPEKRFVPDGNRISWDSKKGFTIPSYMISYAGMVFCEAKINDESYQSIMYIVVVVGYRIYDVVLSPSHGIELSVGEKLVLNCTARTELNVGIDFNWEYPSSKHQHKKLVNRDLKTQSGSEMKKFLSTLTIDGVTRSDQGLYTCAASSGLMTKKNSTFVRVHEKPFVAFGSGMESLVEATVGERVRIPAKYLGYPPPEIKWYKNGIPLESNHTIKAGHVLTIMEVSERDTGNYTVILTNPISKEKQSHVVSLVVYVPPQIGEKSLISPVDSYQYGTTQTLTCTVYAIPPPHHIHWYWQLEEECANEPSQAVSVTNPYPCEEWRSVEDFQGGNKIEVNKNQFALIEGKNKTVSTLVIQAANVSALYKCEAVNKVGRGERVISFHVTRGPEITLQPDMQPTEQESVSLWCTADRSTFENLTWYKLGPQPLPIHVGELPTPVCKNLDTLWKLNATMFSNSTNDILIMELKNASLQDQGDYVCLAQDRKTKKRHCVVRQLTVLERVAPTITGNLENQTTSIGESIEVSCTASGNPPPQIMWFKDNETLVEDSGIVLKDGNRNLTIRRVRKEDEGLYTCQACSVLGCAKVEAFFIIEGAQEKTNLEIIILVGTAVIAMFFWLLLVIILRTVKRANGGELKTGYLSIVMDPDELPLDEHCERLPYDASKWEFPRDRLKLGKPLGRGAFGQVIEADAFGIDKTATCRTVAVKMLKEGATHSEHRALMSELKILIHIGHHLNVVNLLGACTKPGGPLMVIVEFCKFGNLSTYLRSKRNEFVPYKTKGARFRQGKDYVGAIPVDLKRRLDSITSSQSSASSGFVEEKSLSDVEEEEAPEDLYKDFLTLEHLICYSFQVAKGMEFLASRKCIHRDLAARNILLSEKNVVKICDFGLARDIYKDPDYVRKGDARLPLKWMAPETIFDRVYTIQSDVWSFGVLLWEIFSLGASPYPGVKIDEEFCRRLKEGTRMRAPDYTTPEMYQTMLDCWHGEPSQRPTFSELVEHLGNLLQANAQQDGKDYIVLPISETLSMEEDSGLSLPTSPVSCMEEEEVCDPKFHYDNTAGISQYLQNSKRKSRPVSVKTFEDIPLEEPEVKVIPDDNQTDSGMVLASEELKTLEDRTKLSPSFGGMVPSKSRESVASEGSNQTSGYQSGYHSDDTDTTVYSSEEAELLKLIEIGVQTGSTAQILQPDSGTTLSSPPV
BRAF V600E, sequence (P15056 whole entry V600E): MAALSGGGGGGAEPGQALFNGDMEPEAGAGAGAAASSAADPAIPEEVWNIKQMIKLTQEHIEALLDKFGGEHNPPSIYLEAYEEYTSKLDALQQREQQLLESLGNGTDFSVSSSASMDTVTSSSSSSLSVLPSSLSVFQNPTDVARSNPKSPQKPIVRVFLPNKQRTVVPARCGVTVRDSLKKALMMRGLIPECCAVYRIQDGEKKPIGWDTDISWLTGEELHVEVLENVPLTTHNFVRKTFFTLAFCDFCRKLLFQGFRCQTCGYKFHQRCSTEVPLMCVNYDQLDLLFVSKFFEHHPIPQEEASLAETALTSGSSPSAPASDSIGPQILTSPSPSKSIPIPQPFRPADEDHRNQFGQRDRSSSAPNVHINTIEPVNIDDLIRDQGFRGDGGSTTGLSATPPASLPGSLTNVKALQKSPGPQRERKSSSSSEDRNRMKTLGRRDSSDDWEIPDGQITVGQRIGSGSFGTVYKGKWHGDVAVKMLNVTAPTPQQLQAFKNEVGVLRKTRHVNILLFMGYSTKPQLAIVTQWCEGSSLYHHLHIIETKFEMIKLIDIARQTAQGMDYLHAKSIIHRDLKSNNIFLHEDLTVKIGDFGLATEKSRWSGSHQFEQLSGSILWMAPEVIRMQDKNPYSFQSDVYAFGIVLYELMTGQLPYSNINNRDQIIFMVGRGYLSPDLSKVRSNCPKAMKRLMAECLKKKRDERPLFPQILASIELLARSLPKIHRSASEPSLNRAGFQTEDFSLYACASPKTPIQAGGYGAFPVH

`O=C(Nc1cc(F)c(F)c(C(=O)c2ccc3ncc(N4CCOCC4)nc3c2)c1F)c1cccc(C(F)(F)F)c1` [Compound C138, N-(2,4,5-trifluoro-3-(3-morpholinoquinoxaline-6-carbonyl)phenyl)-3-(trifluoromethyl)benzamide]: the values for the inhibition at 1 µM at BRAF V600E and at KDR (VEGFR2) were 70 to 89% and greater than 89%, respectively. The IC50 in the assay on A549 cells was greater than 5 µM; with A375 cells, 1 to 5 µM.

On to `NCCNc1cnc2ccc(C(=O)c3cc(NC(=O)Nc4ccc(F)c(F)c4)ccc3F)cc2n1` [Compound C091, 1-(3-(3-((2-aminoethyl)amino)quinoxaline-6-carbonyl)-4-fluorophenyl)-3-(3,4-difluorophenyl)urea], for which the inhibition at 1 µM on BRAF V600E and at KDR (VEGFR2) was greater than 89% in each case. For the same molecule, the results for the half-maximal inhibitory concentration (IC50) in the assay with A549 cells and in the assay with A375 cells were greater than 5 µM and 1 to 5 µM, respectively.

As to `O=C(Nc1ccc(Cl)c(F)c1)Nc1ccc(F)c(C(=O)c2ccc3nccnc3c2)c1` [Compound C077, 1-(4-chloro-3-fluorophenyl)-3-(4-fluoro-3-(quinoxaline-6-carbonyl)phenyl)urea], the results for the inhibition at 1 µM at BRAF V600E and at KDR (VEGFR2) were greater than 89% and less than 70%, respectively. Besides, the IC50 was greater than 5 µM in the assay with A549 cells and 1 to 5 µM in the assay on A375 cells.

For `NCCNc1cnc2ccc(C(=O)c3cc(NC(=O)Nc4cccc(F)c4)ccc3F)cc2n1` [Compound C088, 1-(3-(3-((2-aminoethyl)amino)quinoxaline-6-carbonyl)-4-fluorophenyl)-3-(3-fluorophenyl)urea], the inhibition at 1 µM at BRAF V600E and on KDR (VEGFR2) was greater than 89% in each case. For the same molecule, the concentration for half-maximal inhibition (IC50) was greater than 5 µM with A549 cells and 1 to 5 µM with A375 cells.

With `O=C(Nc1cc(F)cc(C(=O)c2ccc3nccnc3c2)c1)c1cccc(F)c1` [Compound C125, 3-fluoro-N-(3-fluoro-5-(quinoxaline-6-carbonyl)phenyl)benzamide], the inhibition at 1 µM at BRAF V600E and on KDR (VEGFR2) was less than 70% throughout. Moreover, the IC50 in the assay on A549 cells and in the assay on A375 cells was greater than 5 µM each time.

Turning to `O=C(Nc1ccc(Cl)c(C(F)(F)F)c1)Nc1cc(F)c(F)c(C(=O)c2ccc3ncc(N4CCOCC4)nc3c2)c1F` [Compound C032, 1-(4-chloro-3-(trifluoromethyl)phenyl)-3-(2,4,5-trifluoro-3-(3-morpholinoquinoxaline-6-carbonyl)phenyl)urea], the inhibition at 1 µM on BRAF V600E and on KDR (VEGFR2) was less than 70% in each case. The IC50 with A549 cells was 2 to 5 µM; in the assay with A375 cells, 1 to 5 µM.

On to `O=C(Nc1ccc(Cl)cc1)Nc1cc(F)cc(C(=O)c2ccc3nccnc3c2)c1` [Compound C063, 1-(4-chlorophenyl)-3-(3-fluoro-5-(quinoxaline-6-carbonyl)phenyl)urea], for which the inhibition at 1 µM on BRAF V600E is greater than 89%; at KDR (VEGFR2) it was less than 70%. Further, the half-maximal inhibitory concentration (IC50) with A549 cells is greater than 5 µM; in the assay with A375 cells, 1 to 5 µM.

As for `O=C(Nc1cccc(F)c1)Nc1ccc(F)c(C(=O)c2ccc3ncc(N4CCNCC4)nc3c2)c1` [Compound C084, 1-(4-fluoro-3-(3-(piperazin-1-yl)quinoxaline-6-carbonyl)phenyl)-3-(3-fluorophenyl)urea], the inhibition at 1 µM on BRAF V600E and at KDR (VEGFR2) was greater than 89% in each case. Also, the concentration for half-maximal inhibition (IC50) with A549 cells is 2 to 5 µM; with A375 cells, less than 1 µM.

In the case of `O=C(Nc1cc(F)cc(C(=O)c2ccc3nccnc3c2)c1)Nc1ccc(Cl)c(Cl)c1` [Compound C069, 1-(3,4-dichlorophenyl)-3-(3-fluoro-5-(quinoxaline-6-carbonyl)phenyl)urea], the inhibition at 1 µM at BRAF V600E was greater than 89%; at KDR (VEGFR2) it was less than 70%. In addition, the concentration for half-maximal inhibition (IC50) with A549 cells is less than 2 µM; in the assay on A375 cells, greater than 5 µM.

With `O=C(Nc1ccc(C(F)(F)F)cc1)Nc1cc(F)cc(C(=O)c2ccc3nccnc3c2)c1` [Compound C066, 1-(3-fluoro-5-(quinoxaline-6-carbonyl)phenyl)-3-(4-(trifluoromethyl)phenyl)urea], the results for the inhibition at 1 µM on BRAF V600E and on KDR (VEGFR2) were greater than 89% and less than 70%, respectively. The half-inhibitory concentration (IC50) in the assay with A549 cells was in the range of 2 to 5 µM; with A375 cells, 1 to 5 µM.

On to `O=C(Nc1ccc(F)c(C(=O)c2ccc3nccnc3c2)c1F)c1cccc(F)c1` [Compound C113, N-(2,4-difluoro-3-(quinoxaline-6-carbonyl)phenyl)-3-fluorobenzamide], for which the figures for the inhibition at 1 µM on BRAF V600E and on KDR (VEGFR2) were 70 to 89% and less than 70%, respectively. Besides, the concentration for half-maximal inhibition (IC50) in the assay with A549 cells and with A375 cells was greater than 5 µM in each case.

In the case of `O=C(Nc1cc(F)c(F)c(C(=O)c2ccc3ncc(N4CCOCC4)nc3c2)c1F)c1cccc(F)c1` [Compound C137, 3-fluoro-N-(2,4,5-trifluoro-3-(3-morpholinoquinoxaline-6-carbonyl)phenyl)benzamide], the inhibition at 1 µM on BRAF V600E and at KDR (VEGFR2) was 70 to 89% each time. In addition, the concentration for half-maximal inhibition (IC50) with A549 cells and in the assay on A375 cells was greater than 5 µM throughout.

With `O=C(Nc1ccc(C(F)(F)F)cc1)Nc1ccc(F)c(C(=O)c2ccc3nccnc3c2)c1` [Compound C075, 1-(4-fluoro-3-(quinoxaline-6-carbonyl)phenyl)-3-(4-(trifluoromethyl)phenyl)urea], the inhibition at 1 µM on BRAF V600E was greater than 89%; on KDR (VEGFR2), less than 70%. In addition, the results for the concentration for half-maximal inhibition (IC50) in the assay on A549 cells and in the assay with A375 cells were less than 2 µM and less than 1 µM, respectively.

For `O=C(Nc1cccc(F)c1)Nc1cc(F)cc(C(=O)c2ccc3nccnc3c2)c1` [Compound C025, 1-(3-fluoro-5-(quinoxaline-6-carbonyl)phenyl)-3-(3-fluorophenyl)urea], the values for the inhibition at 1 µM on BRAF V600E and at KDR (VEGFR2) were greater than 89% and less than 70%, respectively. Besides, the 50% inhibitory concentration (IC50) with A549 cells and with A375 cells was greater than 5 µM throughout.

For `O=C(Nc1ccc(Cl)cc1)Nc1ccc(F)c(C(=O)c2ccc3nccnc3c2)c1` [Compound C074, 1-(4-chlorophenyl)-3-(4-fluoro-3-(quinoxaline-6-carbonyl)phenyl)urea], the results for the inhibition at 1 µM on BRAF V600E and at KDR (VEGFR2) were greater than 89% and less than 70%, respectively. The concentration for half-maximal inhibition (IC50) with A549 cells was greater than 5 µM; with A375 cells, 1 to 5 µM.

Consider `O=C(Nc1cc(F)cc(C(=O)c2ccc3nccnc3c2)c1)Nc1ccc(F)c(F)c1` [Compound C065, 1-(3,4-difluorophenyl)-3-(3-fluoro-5-(quinoxaline-6-carbonyl)phenyl)urea], for which the results for the inhibition at 1 µM at BRAF V600E and at KDR (VEGFR2) were greater than 89% and less than 70%, respectively. In addition, the concentration for half-maximal inhibition (IC50) in the assay with A549 cells and with A375 cells was greater than 5 µM each time.

Turning to `O=C(Nc1cc(F)cc(Cl)c1)Nc1ccc(F)c(C(=O)c2ccc3nccnc3c2)c1` [Compound C078, 1-(3-chloro-5-fluorophenyl)-3-(4-fluoro-3-(quinoxaline-6-carbonyl)phenyl)urea], the figures for the inhibition at 1 µM on BRAF V600E and at KDR (VEGFR2) were greater than 89% and 70 to 89%, respectively. Also, the IC50 with A549 cells was 2 to 5 µM; in the assay on A375 cells it was 1 to 5 µM.

Regarding `O=C(Nc1cc(F)cc(C(=O)c2ccc3nccnc3c2)c1)Nc1cccc(C(F)(F)F)c1` [Compound C027, 1-(3-fluoro-5-(quinoxaline-6-carbonyl)phenyl)-3-(3-(trifluoromethyl)phenyl)urea], the inhibition at 1 µM is greater than 89% on BRAF V600E and 70 to 89% at KDR (VEGFR2). Also, the half-inhibitory concentration (IC50) in the assay with A549 cells is less than 2 µM; in the assay on A375 cells, greater than 5 µM.

The values are drawn from patent US10759766B2, “Certain chemical entities, compositions, and methods” (NeuPharma, Inc., priority 2011, dated 2020).
